Results taken from patent US20090081197A1 (Palatin Technologies, Inc., priority 2007, published 2009).
Like-named read-outs stand apart in the source and are kept apart here. Positions of bridges follow the written chain, without caps; N, C: chain ends. Non-standard residues stand in square brackets, D forms with d. Residues, ends and D or L forms follow the SMILES beside them. No end group written: not given here. 2Nal = N[C@@H](Cc1ccc2ccccc2c1)C(=O)O; d2Nal = N[C@H](Cc1ccc2ccccc2c1)C(=O)O; Nle = CCCC[C@H](N)C(=O)O

Assays:
[1] = functional antagonists known not to cause PE response, cited from earlier work
[2] = biological target: T1, MC4-R (Homo sapiens, UniProt P32245); test: cAMP agonist stimulation, low receptor density system (0.1 ng/mL doxycycline); settings: 0.1 ng/mL doxycycline, low receptor density hMC4-R system; NDP-α-MSH maximal cAMP = 1.0
[3] = biological target: T1, MC4-R; test: cAMP agonist stimulation, high receptor density system (10 ng/mL doxycycline); settings: for Efficacy/Intrinsic Activity: 10 ng/mL doxycycline, high receptor density hMC4-R system, NDP-α-MSH maximal cAMP = 1.0
[4] = biological target: T2, MC1-R (Mus musculus, UniProt Q01727); test: Competitive inhibition assay using [I^125]-NDP-α-MSH, B-16 mouse melanoma cell membranes; format: binding; settings: 1 μM test compound; read-out: Inhibition at 1 μM (NDP-α-MSH) In Normal System, MC1-R
T2 construct: B-16 mouse melanoma cells (containing MC1-R); endogenous in cells
Method in brief: (§1)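 Tracer was 0.4 nM for MC3-R and MC5-R, 0.2 nM for MC4-R and 0.1 nM for MC1-R. Bound radioactivity was gamma-counted after filtration; values are triplicate means, with results below 0% reported as 0%.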

[5] = biological target: T2, MC1-R; test: cAMP functional activity assay in B-16 mouse melanoma cells; format: cell-based; settings: 1 μM concentration where stated
Procedure: (§2) General method for EC50 determination in functional activity assay. […] Data analysis and EC50 values were determined using nonlinear regression analysis with Prism Graph-Pad software.
(§3) Functional status. The agonist/antagonist status with respect to MC1-R, MC-3R, MC4-R and MC5-R of certain compounds of the invention was determined. Antagonistic activity was determined by measuring the inhibition of α-MSH-induced or NDP-α-MSH-induced cAMP levels following exposure to graded doses of compounds as in the preceding descriptions.

[6] = IV and IP food intake and body weight change, rats; format: in vivo; settings: rat, 10 mg/kg, 24 hours
Procedure: IV and IP food intake and body weight change. Change in food intake and body weight was evaluated for selected compounds. Male Sprague-Dawley rats or male C57BL/6 mice were utilized. Animals were individually housed in conventional plexiglass hanging cages and maintained on a controlled 12 hour on/off light cycle. Water and powdered (LabDiet, 5P00 Prolab RMH 3000) or pelleted (Harlan Teklad 2018 18% Protein Rodent Diet) food was provided ad libitum. For 1 week before treatment, 24-hour food intake and body weight change was recorded to assess a baseline for the group during vehicle treatment. The rats were dosed IV with vehicle or selected compounds (0.5-3 mg/kg, and in some cases up to 10 mg/Kg) or dosed intraperitoneally (IP) with vehicle or selected compounds (0.5-10 mg/kg, and in some cases up to 50 mg/kg). Mice were dosed IP. The changes in body weight and food intake for the 24 hour period after dosing were determined. The changes in body weight and food intake for the 48 hour and 72 hour periods after dosing were also measured to determined reversal of changes in body weight and food intake effects back to baseline levels.

[7] = IP (and IN) food intake, mice; format: in vivo; settings: mouse, IP, 4 hours
Method in brief: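 Male Sprague-Dawley rats dosed IV (0.5-3, up to 10 mg/kg) or IP (0.5-10, up to 50 mg/kg); male C57BL/6 mice dosed IP. Change in food intake and body weight over 24 h post-dose versus 1-week vehicle baseline, with 48 and 72 h reversal checks.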

[8] = biological target: T3, MC3-R (Homo sapiens, UniProt P41968); test: Competitive inhibition assay using [I^125]-NDP-α-MSH, hMC3-R membranes; format: binding; set-up: expressed in transfected cells; settings: 1 μM test compound; read-out: Inhibition at 1 μM (NDP-α-MSH) In Normal System, MC3-R
Method in brief: as §1

[9] = biological target: T4, MC5-R (Homo sapiens, UniProt P33032); test: Competitive inhibition assay using [I^125]-NDP-α-MSH, hMC5-R membranes; format: binding; set-up: expressed in transfected cells; settings: 1 μM test compound; read-out: Inhibition at 1 μM (NDP-α-MSH) In Normal System, MC5-R
Method in brief: as §1

[10] = biological target: T1, MC4-R; test: cAMP functional activity assay in HEK-293 cells, normal system; format: cell-based; set-up: expressed in transfected cells; host or cells: HEK-293
[11] = biological target: T3, MC3-R; test: cAMP functional activity assay in HEK-293 cells; format: cell-based; set-up: expressed in transfected cells; host or cells: HEK-293; settings: 1 μM concentration where stated
Procedure: as §2, §3

[12] = biological target: T4, MC5-R; test: cAMP functional activity assay in HEK-293 cells; format: cell-based; set-up: expressed in transfected cells; host or cells: HEK-293; settings: 1 μM concentration where stated
Procedure: as §2, §3

[13] = biological target: T1, MC4-R; test: Assay for neutral antagonist, Schild analysis (pA2) against NDP-α-MSH; format: cell-based; set-up: expressed in transfected cells; host or cells: HEK-293; settings: Schild analysis vs NDP-α-MSH; read-out: pA2 value as antagonist at MC4-R in a normal system (converted)
Procedure: Assay for Neutral Antagonist. […] These studies were carried out in HEK-293 cells expressing the MC4-R receptor. Cells were incubated with the compounds in the presence of the agonist NDP-α-MSH and the extent of antagonism was measured by the decrease in the level of intracellular cAMP. Screening the compounds for antagonists was done at a single concentration of NDP-α-MSH (1.0 nM) over a compound concentration range of 0.5-5000 nM.
Experimental details were similar to the analysis for agonistic activity described above. Briefly, cells were pre-incubated for 30 minutes with the test compounds at concentrations between 0.5 nM and 5000 nM. The cells were then stimulated with NDP-α-MSH at a concentration of 1 nM for 1 hour. For Schild analysis, the interactions were studied using at least 3 concentrations of the compounds, separated by a log unit, over a full range of the agonist (0.005-5000 nM). cAMP levels was measured in the cell lysates after appropriate dilution. Nonlinear regression analysis with Prism Graph-Pad software was used for Schild analysis and to obtain EC50 values. pA2 values were derived from the Schild plot of the data.

[14] = biological target: T1, MC4-R; test: Competitive inhibition assay using [I^125]-NDP-α-MSH, hMC4-R membranes; format: binding; set-up: host or cells: TREx-293 (HEK-293 stably expressing Tet repressor); settings: 1 μM test compound; read-out: Inhibition at 1 μM (NDP-α-MSH) In Normal System, MC4-R
Method in brief: as §1

[15] = biological target: T5, human MC1-R (Homo sapiens, UniProt Q01726); test: Competitive inhibition assay using [I^125]-NDP-α-MSH, human MC1-R (separate experiments); format: binding; settings: separate experiments with human MC1-R; read-out: Ki (nM) (NDP-α-MSH) in a normal system, human MC1-R
T5 construct: expressed in transfected cells

[16] = Penile erection induction in male rats; format: in vivo; settings: rat, ICV
Method in brief: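 Male Sprague-Dawley rats (200-250 g), groups of 4-8, dosed IV or ICV at various doses and observed individually for penile erections. Only statistically relevant increases over vehicle-control mean PEs count as induction; IV responses below 1.0 PEs/rat treated as equivocal, some retested ICV.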

[17] = ICV food intake and body weight change; format: in vivo; settings: rat, 1 nmol
Method in brief: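 Rats fitted with intracerebroventricular cannulas and fed ad libitum got a single ICV dose of vehicle or compound (1-3 nmol). Food intake and body-weight change over the 24 h after dosing were compared with a 1-week vehicle baseline. Values at 48 h and 72 h were also recorded to follow return to baseline.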

T4 sequence (P33032 whole entry): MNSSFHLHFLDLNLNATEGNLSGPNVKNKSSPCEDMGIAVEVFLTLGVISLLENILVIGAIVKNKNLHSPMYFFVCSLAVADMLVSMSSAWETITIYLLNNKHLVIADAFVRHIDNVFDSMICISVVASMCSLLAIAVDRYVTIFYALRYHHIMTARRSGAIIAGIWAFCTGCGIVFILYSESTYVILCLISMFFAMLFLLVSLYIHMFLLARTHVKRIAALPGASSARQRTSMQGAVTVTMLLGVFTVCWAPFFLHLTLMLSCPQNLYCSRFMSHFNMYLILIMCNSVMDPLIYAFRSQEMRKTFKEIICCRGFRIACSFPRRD
T3 sequence (P41968 whole entry): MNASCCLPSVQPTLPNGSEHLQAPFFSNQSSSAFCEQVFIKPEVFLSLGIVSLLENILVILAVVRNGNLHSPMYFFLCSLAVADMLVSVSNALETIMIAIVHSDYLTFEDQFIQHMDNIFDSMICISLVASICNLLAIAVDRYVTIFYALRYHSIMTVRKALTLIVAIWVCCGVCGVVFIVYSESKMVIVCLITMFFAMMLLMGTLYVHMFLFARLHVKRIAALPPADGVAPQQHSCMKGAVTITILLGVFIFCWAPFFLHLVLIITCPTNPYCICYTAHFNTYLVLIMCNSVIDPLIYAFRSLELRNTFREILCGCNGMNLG
T2 sequence (Q01727 whole entry): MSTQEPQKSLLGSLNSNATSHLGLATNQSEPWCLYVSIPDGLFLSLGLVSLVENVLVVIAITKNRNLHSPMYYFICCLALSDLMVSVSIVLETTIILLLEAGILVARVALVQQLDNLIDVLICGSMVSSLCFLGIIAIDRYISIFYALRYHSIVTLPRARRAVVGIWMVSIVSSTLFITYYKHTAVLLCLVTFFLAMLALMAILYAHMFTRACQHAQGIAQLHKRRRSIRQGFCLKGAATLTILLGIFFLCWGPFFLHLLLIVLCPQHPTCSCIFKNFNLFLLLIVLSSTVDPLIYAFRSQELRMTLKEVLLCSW
T1 sequence (P32245 whole entry): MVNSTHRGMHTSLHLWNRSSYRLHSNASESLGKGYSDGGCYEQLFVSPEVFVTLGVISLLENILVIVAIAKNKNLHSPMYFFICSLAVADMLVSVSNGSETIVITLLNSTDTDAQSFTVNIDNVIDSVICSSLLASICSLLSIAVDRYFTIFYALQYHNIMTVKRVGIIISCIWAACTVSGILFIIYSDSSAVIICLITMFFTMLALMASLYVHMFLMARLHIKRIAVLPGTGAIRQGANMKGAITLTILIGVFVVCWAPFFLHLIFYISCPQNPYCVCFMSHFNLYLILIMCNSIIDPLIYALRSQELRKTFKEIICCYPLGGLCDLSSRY
T5 sequence (Q01726 whole entry): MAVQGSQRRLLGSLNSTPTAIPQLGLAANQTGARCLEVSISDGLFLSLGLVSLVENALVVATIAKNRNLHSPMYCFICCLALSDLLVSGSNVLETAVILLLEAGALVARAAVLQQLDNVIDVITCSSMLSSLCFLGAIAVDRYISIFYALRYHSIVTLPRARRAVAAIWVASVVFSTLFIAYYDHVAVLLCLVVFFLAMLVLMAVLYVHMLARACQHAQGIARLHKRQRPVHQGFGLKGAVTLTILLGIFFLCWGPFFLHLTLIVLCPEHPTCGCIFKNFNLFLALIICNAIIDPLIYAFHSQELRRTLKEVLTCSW

Efficacy/Intrinsic Activity [2]	Efficacy/Intrinsic Activity [3]	Molecule	Penile Erection ICV [1]	Penile Erection IV [1]	inhibition at 1 µM [4] [%]	inhibition at 1 µM [8] [%]	inhibition at 1 µM [9] [%]	Kb [13] [nM]	inhibition at 1 µM [14] [%]	also measured
None	None	AGRP (83-132): AgRP (83-132); functional antagonist known not to cause PE response (SSRRCVRLHESCLGQQVPCCDPCATCYCRFFNAFCYCRKLGTAMNPCSRT; ends and bridges not checked; cysteine pairing not given here) [reference compound]	No	No						
		cyclo 2,7[Ac-Nle-Asp-His-D-Nal 2-Arg-Trp-Lys]-NH2 [SHU-9119]	No	No						
None	None	CCCC[C@H](NC(C)=O)C(=O)N[C@H]1CC(=O)NCCCC[C@@H](C(=O)O)NC(=O)[C@H](Cc2ccc3ccccc3c2)NC(=O)[C@H](CCCNC(=N)N)NC(=O)[C@@H](Cc2ccc3ccccc3c2)NC(=O)[C@H](Cc2c[nH]cn2)NC1=O [Example 34, Ac-Nle-cyclo(Asp-His-D-Nal 2-Arg-Nal 2-Lys)-OH] (Ac-[Nle]DH[d2Nal]R[2Nal]K-OH; lactam 2-7)			102	98	100	7.94	100	Ki [15]: 0.25 nM; Penile Erection ICV [16]: No; PE efficacy ([16]; 3 nanomole): inactive; 24 hour increase in food intake [17]: 12 g; increase in body weight ([17]; 24 hours): 16 g; functional status at MC4-R in cAMP assay ([10]; at 1 nM dose): inactive

Molecule	Efficacy/Intrinsic Activity [2]	Efficacy/Intrinsic Activity [3]	Penile Erection ICV [1]	Penile Erection IV [1]	inhibition at 1 µM [4] [%]	inhibition at 1 µM [8] [%]	inhibition at 1 µM [9] [%]	Kb [13] [nM]	inhibition at 1 µM [14] [%]	also measured
C[C@@H]1CN(C(=O)[C@H](N)Cc2ccc(Cl)cc2Cl)[C@@H](CCCNC(=N)N)CN1CCc1ccc2ccccc2c1 [Example 11, N-{3-[1-[2(R)-Amino-3-(2,4-dichloro-phenyl)-propionyl]-5(R)-methyl-4-(2-naphthalen-2-yl-ethyl)-piperazin-2(S)-yl]-propyl}-guanidine]	None	0.49			20	72	65	15.8	99	functional status at MC1-R in cAMP assay [5]: inactive; maximal decrease in food intake ([6]; IP): 19%; maximal decrease in food intake ([6]; IV): 87%; maximal decrease in food intake ([7]; 3 mg/kg): 10%; maximal decrease in food intake ([7]; 10 mg/kg): 30%; functional status at MC4-R in cAMP assay ([10]; normal system, 1 μM concentration where stated): antagonist; functional status at MC3-R in cAMP assay [11]: inactive; functional status at MC5-R in cAMP assay [12]: inactive; EC50 [3]: 61 nM
